Laboratory results reported in the supplement of paper PMC10307832.

Legend:
Experiment in all cases: relative viability (nuclei count vs DMSO), 5 days (fraction); higher = more cells survive
[1] = compound: CC(C)C[C@H](NC(=O)[C@H](CCc1ccccc1)NC(=O)CN1CCOCC1)C(=O)N[C@@H](Cc1ccccc1)C(=O)N[C@@H](CC(C)C)C(=O)[C@@]1(C)CO1 [Carfilzomib] + Cc1nc(NC(=O)N2CCC[C@H]2C(N)=O)sc1-c1ccnc(C(C)(C)C(F)(F)F)c1 [Alpelisib] (partner 2 µM)
Method in brief: (§1)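 Nuclei were stained with Hoechst during a one-step fixation (final 0.05% Triton X-100, 1% formaldehyde, 1 ug/ml Hoechst) carried out 5 days after dosing, then counted on 4× images. The cells, lung cancer lines in 1536-well plates, had been dosed by pin tool the day after seeding with one drug alone or a fixed anchor-drug dose plus five library-drug doses (not always all listed) in √10 steps. Relative viability is the nuclei count in treated wells divided by that in vehicle wells, and each value is the median of duplicate plates.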

[2] = compound: C[C@@H](Oc1cc(-c2cnn(C3CCNCC3)c2)cnc1N)c1c(Cl)ccc(F)c1Cl [Crizotinib] + Cc1cc(Nc2cc(N3CCN(C)CC3)nc(Sc3ccc(NC(=O)C4CC4)cc3)n2)n[nH]1 [Tozasertib] (partner 0.1 µM)
Method in brief: as §1

[3] = compound: C[C@@H](Oc1cc(-c2cnn(C3CCNCC3)c2)cnc1N)c1c(Cl)ccc(F)c1Cl [Crizotinib] + O=C(c1cc(Cc2n[nH]c(=O)c3ccccc23)ccc1F)N1CCN(C(=O)C2CC2)CC1 [Olaparib] (partner 8 µM)
Method in brief: as §1

[4] = compound: O=C(c1cc(Cc2n[nH]c(=O)c3ccccc23)ccc1F)N1CCN(C(=O)C2CC2)CC1 [Olaparib] + C[C@@H](Oc1cc(-c2cnn(C3CCNCC3)c2)cnc1N)c1c(Cl)ccc(F)c1Cl [Crizotinib] (partner 1 µM)
Method in brief: as §1

In the case of LOU-NH91, the relative viability ([1]; first compound 0.001 µM) is reported as 0.702, the relative viability ([1]; first compound 0.003162 µM) is reported as 0.742 and the relative viability ([1]; first compound 0.01 µM) is reported as 0.662. The relative viability ([1]; first compound 0.03162 µM) was 0.307, the relative viability ([1]; first compound 0.1 µM) was 0.267 and the relative viability ([2]; first compound 0.01 µM) was 0.674. For the same cell line, the relative viability ([2]; first compound 0.03162 µM) was 0.69, the relative viability ([2]; first compound 0.1 µM) was 0.751 and the relative viability ([2]; first compound 0.3162 µM) was 0.606. The relative viability ([2]; first compound 1 µM) was 0.677, the relative viability ([3]; first compound 0.01 µM) was 0.917 and the relative viability ([3]; first compound 0.03162 µM) was 0.876. It also gave a relative viability ([3]; first compound 0.1 µM) of 0.925, a relative viability ([3]; first compound 0.3162 µM) of 0.848 and a relative viability ([3]; first compound 1 µM) of 0.912. It also gave a relative viability ([4]; first compound 0.08 µM) of 0.785, a relative viability ([4]; first compound 0.253 µM) of 0.71 and a relative viability ([4]; first compound 2.53 µM) of 0.721. The relative viability ([4]; first compound 8 µM) was 0.744.

NCI-H1755 showed a relative viability ([1]; first compound 0.001 µM) of 0.917, a relative viability ([1]; first compound 0.003162 µM) of 0.948 and a relative viability ([1]; first compound 0.01 µM) of 0.925. For the same cell line, the relative viability ([1]; first compound 0.03162 µM) was 0.601, the relative viability ([1]; first compound 0.1 µM) was 0.202 and the relative viability ([2]; first compound 0.01 µM) was 0.614. For the same cell line, the relative viability ([2]; first compound 0.03162 µM) was 0.563, the relative viability ([2]; first compound 0.1 µM) was 0.617 and the relative viability ([2]; first compound 0.3162 µM) was 0.467. The relative viability ([2]; first compound 1 µM) was 0.549, the relative viability ([3]; first compound 0.01 µM) was 0.779 and the relative viability ([3]; first compound 0.03162 µM) was 0.867. It also gave a relative viability ([3]; first compound 0.1 µM) of 0.854, a relative viability ([3]; first compound 0.3162 µM) of 0.923 and a relative viability ([3]; first compound 1 µM) of 0.827. The relative viability ([4]; first compound 0.08 µM) was 0.957, the relative viability ([4]; first compound 0.253 µM) was 0.824 and the relative viability ([4]; first compound 2.53 µM) was 0.904. For the same cell line, the relative viability ([4]; first compound 8 µM) was 0.728.

NCI-H647 gave a relative viability ([1]; first compound 0.001 µM) of 1.14, a relative viability ([1]; first compound 0.003162 µM) of 1.19 and a relative viability ([1]; first compound 0.01 µM) of 0.71. The relative viability ([1]; first compound 0.03162 µM) was 0.025, the relative viability ([1]; first compound 0.1 µM) was 0.0242 and the relative viability ([2]; first compound 0.01 µM) was 0.267. The relative viability ([2]; first compound 0.03162 µM) was 0.305, the relative viability ([2]; first compound 0.1 µM) was 0.248 and the relative viability ([2]; first compound 0.3162 µM) was 0.26. The relative viability ([2]; first compound 1 µM) was 0.204, the relative viability ([3]; first compound 0.01 µM) was 0.444 and the relative viability ([3]; first compound 0.03162 µM) was 0.68. For the same cell line, the relative viability ([3]; first compound 0.1 µM) was 0.564, the relative viability ([3]; first compound 0.3162 µM) was 0.505 and the relative viability ([3]; first compound 1 µM) was 0.597. For the same cell line, the relative viability ([4]; first compound 0.08 µM) was 1.23, the relative viability ([4]; first compound 0.253 µM) was 0.914 and the relative viability ([4]; first compound 2.53 µM) was 0.923. It also gave a relative viability ([4]; first compound 8 µM) of 0.675.

A549 was tested, and the relative viability ([1]; first compound 0.001 µM) was 0.652, the relative viability ([1]; first compound 0.003162 µM) was 0.754 and the relative viability ([1]; first compound 0.01 µM) was 0.755. The relative viability ([1]; first compound 0.03162 µM) was 0.0509, the relative viability ([1]; first compound 0.1 µM) was 0.04 and the relative viability ([3]; first compound 0.01 µM) was 0.38. For the same cell line, the relative viability ([3]; first compound 0.03162 µM) was 0.259, the relative viability ([3]; first compound 0.1 µM) was 0.362 and the relative viability ([3]; first compound 1 µM) was 0.456. It also gave a relative viability ([4]; first compound 0.08 µM) of 0.884, a relative viability ([4]; first compound 0.253 µM) of 0.654 and a relative viability ([4]; first compound 2.53 µM) of 0.777. It also gave a relative viability ([4]; first compound 8 µM) of 0.358.

With LCLC-103H the relative viability ([1]; first compound 0.001 µM) was 0.972, the relative viability ([1]; first compound 0.003162 µM) was 1.01 and the relative viability ([1]; first compound 0.01 µM) was 0.99. It also gave a relative viability ([1]; first compound 0.03162 µM) of 0.671, a relative viability ([1]; first compound 0.1 µM) of 0.195 and a relative viability ([2]; first compound 0.01 µM) of 0.37. It also gave a relative viability ([2]; first compound 0.03162 µM) of 0.39, a relative viability ([2]; first compound 0.1 µM) of 0.488 and a relative viability ([2]; first compound 0.3162 µM) of 0.451. The relative viability ([2]; first compound 1 µM) was 0.578, the relative viability ([3]; first compound 0.01 µM) was 0.824 and the relative viability ([3]; first compound 0.03162 µM) was 0.766. The relative viability ([3]; first compound 0.1 µM) was 0.794, the relative viability ([3]; first compound 0.3162 µM) was 0.816 and the relative viability ([3]; first compound 1 µM) was 0.749. For the same cell line, the relative viability ([4]; first compound 0.08 µM) was 1.15, the relative viability ([4]; first compound 0.253 µM) was 1.04 and the relative viability ([4]; first compound 2.53 µM) was 1.04. For the same cell line, the relative viability ([4]; first compound 8 µM) was 0.985.

NCI-H1437 gave a relative viability ([1]; first compound 0.001 µM) of 0.982, a relative viability ([1]; first compound 0.003162 µM) of 1.01 and a relative viability ([1]; first compound 0.01 µM) of 0.943. For the same cell line, the relative viability ([1]; first compound 0.03162 µM) was 0.54, the relative viability ([1]; first compound 0.1 µM) was 0.101 and the relative viability ([2]; first compound 0.01 µM) was 0.379. It also gave a relative viability ([2]; first compound 0.03162 µM) of 0.409, a relative viability ([2]; first compound 0.1 µM) of 0.406 and a relative viability ([2]; first compound 0.3162 µM) of 0.384. The relative viability ([2]; first compound 1 µM) was 0.374, the relative viability ([3]; first compound 0.01 µM) was 0.625 and the relative viability ([3]; first compound 0.03162 µM) was 0.608. For the same cell line, the relative viability ([3]; first compound 0.1 µM) was 0.627, the relative viability ([3]; first compound 0.3162 µM) was 0.651 and the relative viability ([3]; first compound 1 µM) was 0.66. The relative viability ([4]; first compound 0.08 µM) was 1.07, the relative viability ([4]; first compound 0.253 µM) was 0.814 and the relative viability ([4]; first compound 2.53 µM) was 0.903. It also gave a relative viability ([4]; first compound 8 µM) of 0.618.

Cell Line NCI-H2170 has a relative viability ([1]; first compound 0.001 µM) of 0.801, a relative viability ([1]; first compound 0.003162 µM) of 0.775 and a relative viability ([1]; first compound 0.01 µM) of 0.875. For the same cell line, the relative viability ([1]; first compound 0.03162 µM) was 0.659, the relative viability ([1]; first compound 0.1 µM) was 0.24 and the relative viability ([2]; first compound 0.01 µM) was 0.683. For the same cell line, the relative viability ([2]; first compound 0.03162 µM) was 0.793, the relative viability ([2]; first compound 0.1 µM) was 0.669 and the relative viability ([2]; first compound 0.3162 µM) was 0.792. The relative viability ([2]; first compound 1 µM) was 0.681, the relative viability ([3]; first compound 0.01 µM) was 0.558 and the relative viability ([3]; first compound 0.03162 µM) was 0.625. It also gave a relative viability ([3]; first compound 0.1 µM) of 0.642, a relative viability ([3]; first compound 0.3162 µM) of 0.558 and a relative viability ([3]; first compound 1 µM) of 0.62. The relative viability ([4]; first compound 0.08 µM) was 1.23, the relative viability ([4]; first compound 0.253 µM) was 1.15 and the relative viability ([4]; first compound 2.53 µM) was 1.4. The relative viability ([4]; first compound 8 µM) was 1.11.

HCC-15 gave a relative viability ([1]; first compound 0.001 µM) of 0.855, a relative viability ([1]; first compound 0.003162 µM) of 0.914 and a relative viability ([1]; first compound 0.01 µM) of 0.86. The relative viability ([1]; first compound 0.03162 µM) was 0.506, the relative viability ([1]; first compound 0.1 µM) was 0.0942 and the relative viability ([2]; first compound 0.01 µM) was 0.408. It also gave a relative viability ([2]; first compound 0.03162 µM) of 0.377, a relative viability ([2]; first compound 0.1 µM) of 0.389 and a relative viability ([2]; first compound 1 µM) of 0.339. It also gave a relative viability ([3]; first compound 0.01 µM) of 0.724, a relative viability ([3]; first compound 0.03162 µM) of 0.648 and a relative viability ([3]; first compound 0.1 µM) of 0.712. The relative viability ([3]; first compound 0.3162 µM) was 0.76, the relative viability ([3]; first compound 1 µM) was 0.772 and the relative viability ([4]; first compound 0.08 µM) was 0.96. For the same cell line, the relative viability ([4]; first compound 0.253 µM) was 0.75, the relative viability ([4]; first compound 2.53 µM) was 0.851 and the relative viability ([4]; first compound 8 µM) was 0.69.

In the case of NCI-H1648, the relative viability ([2]; first compound 0.01 µM) is reported as 0.548, the relative viability ([2]; first compound 0.03162 µM) is reported as 0.599 and the relative viability ([2]; first compound 0.3162 µM) is reported as 0.497. The relative viability ([2]; first compound 1 µM) was 0.47, the relative viability ([3]; first compound 0.03162 µM) was 0.981 and the relative viability ([3]; first compound 0.1 µM) was 0.861. For the same cell line, the relative viability ([3]; first compound 0.3162 µM) was 1.27 and the relative viability ([3]; first compound 1 µM) was 0.77.
